For assay [1], the system named is IFNα stimulated Kit225 T cells with STAT-dependent luciferase reporter. The assay is described as follows: Kit225 T Cell Assay, IFNα stimulated STAT-dependent luciferase reporter. The format is cell-based, human. The procedure: (§1) Kit225 T cells with a stably-integrated STAT-dependent luciferase reporter were plated in RPMI (Gibco) containing 10% heat-inactivated FBS (Gibco) and 100 U/mL PenStrep (Gibco). The cells were then stimulated with either 20 ng/mL human recombinant IL-23 or 200 U/mL human recombinant IFNα (PBL InterferonSource) for 5-6 hours. Luciferase expression was measured using the STEADY-GLO® Luciferase Assay System (Promega) according to the manufacturer's instructions. Inhibition data were calculated by comparison to no inhibitor control wells for 0% inhibition and non-stimulated control wells for 100% inhibition.

Assay [2] deals with recombinant human His-tagged Tyk2 pseudokinase domain (His-TVMV-Tyk2, 575-869) (Homo sapiens, UniProt P29597). The experiment in a line: Probe Displacement Assay (HTRF Format). The following applies: 0.5 nM Tyk2 pseudokinase domain, 1 h room temperature, read-out: Binding IC50. The procedure:
To 10 μL 26 nM fluorescein labeled probe plus 0.2 nM anti-6×His-terbium labeled antibody (Medarex, labeled by Cisbio) in assay buffer (20 mM Hepes pH 7.5, 150 mM NaCl, 10 mM MgCl2, 2 mM DTT, 50 μg/mL BSA, and 0.015% Brij 35) was added 10 μL recombinant human His-tagged Tyk2 pseudokinase domain (His-TVMV-Tyk2, 575-869) to a final concentration of 0.5 nM. After 1 h at room temperature, the HTRF signal (ratio of fluorescence intensities at emission wavelengths for fluorescein acceptor at 520 nm and terbium donor at 495 nm) was measured on an Envision Plate Reader. Percent inhibition was calculated by comparison to a control without inhibitor and a control without protein.
Protein Sequence of recombinant His-tagged Tyk2 (575-869): […]

In assay [3] the test system is IL-23 stimulated Kit225 T cells with STAT-dependent luciferase reporter. The assay is described as follows: Kit225 T Cell Assay, IL-23 stimulated STAT-dependent luciferase reporter. The format is cell-based, human. The procedure: as §1
Where [4] appears, read: KIT225, 200 U/mL human recombinant IFNα, 5-6 hours, luciferase reporter, read-out: IFN[…] Kit 225 IC50.
Setting [5] is: KIT225, 20 ng/mL human recombinant IL-23, 5-6 hours, luciferase reporter, read-out: IL23 Kit 225 IC50.

pIC50: −log10 of the molar value. Read-outs that look alike come from different tables or passages of the source.

Sequence of recombinant human His-tagged Tyk2 pseudokinase domain (His-TVMV-Tyk2, 575-869) (P29597 with tags, fused parts or gaps): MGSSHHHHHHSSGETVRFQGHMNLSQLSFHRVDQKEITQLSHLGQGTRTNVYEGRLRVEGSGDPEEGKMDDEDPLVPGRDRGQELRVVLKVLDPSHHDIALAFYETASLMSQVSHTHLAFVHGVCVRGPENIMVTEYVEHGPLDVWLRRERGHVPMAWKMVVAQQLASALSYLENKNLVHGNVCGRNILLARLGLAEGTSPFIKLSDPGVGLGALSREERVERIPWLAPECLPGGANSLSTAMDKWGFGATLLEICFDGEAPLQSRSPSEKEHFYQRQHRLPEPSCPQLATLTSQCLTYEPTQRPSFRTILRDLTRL

As a reminder, the pIC50 is −log10 of the IC50, conventionally taken in molar units. Take `[2H]C([2H])([2H])NC(=O)c1nnc(Nc2ccc(C(C)(C)O)cn2)cc1Nc1ncccc1P(C)(C)=O` [Example 16]: the pIC50 in assay [1] (setting [4]) is 6.17; in assay [2], 9.54; in assay [3] (setting [5]), 5.92.
Take `[2H]C([2H])([2H])NC(=O)c1nnc(Nc2ccc(OC)nn2)cc1Nc1ccccc1P(C)(C)=O` [Example 4]: the pIC50 in assay [1] (setting [4]) is 5.04; in assay [2], 8.00; in assay [3] (setting [5]), 5.59.
The matching figures for `[2H]C([2H])([2H])NC(=O)c1nnc(Nc2ccc(C(F)(F)F)cn2)cc1Nc1ncccc1P(C)(C)=O` [Example 39]: 6.66, 9.47 and 7.23.
Take `[2H]C([2H])([2H])NC(=O)c1nnc(Nc2cccc(F)n2)cc1Nc1ncccc1P(C)(C)=O` [Example 22]: the pIC50 in assay [1] (Homo sapiens, KIT225, read-out: IFN[…] Kit 225 IC50) is 7.82; in assay [2] it was 10.43; in assay [3] (Homo sapiens, KIT225, read-out: IL23 Kit 225 IC50), 7.40.
For `[2H]C([2H])([2H])NC(=O)c1nnc(NC(=O)C2CC2(C)C)cc1Nc1ncccc1P(C)(C)=O` (stereo not drawn) [Example 28], the figures for the pIC50 in assay [1] (setting [4]), in assay [2] and in assay [3] (setting [5]) were 5.20, 7.77 and 5.20, respectively.
As to `[2H]C([2H])([2H])NC(=O)c1nnc(Nc2cc(COC)ccn2)cc1Nc1ncccc1P(C)(C)=O` [Example 20], the pIC50 is 7.30 in assay [1] (setting [4]), 9.24 in assay [2] and 7.17 in assay [3] (setting [5]).
The corresponding values for `[2H]C([2H])([2H])NC(=O)c1nnc(Nc2cccc(C)n2)cc1Nc1ncccc1P(C)(C)=O` [Example 18] are 7.48, 9.36 and 7.24.
In the case of `[2H]C([2H])([2H])NC(=O)c1nnc(Nc2ccc(C3CC3)cn2)cc1Nc1ncccc1P(C)(C)=O` [Example 17], the pIC50 in assay [1] (setting [4]) is 7.37; in assay [2], 9.57; in assay [3] (setting [5]), 7.24.
The corresponding values for `[2H]C([2H])([2H])NC(=O)c1nnc(Nc2ccc(C(C)(C)O)cn2)cc1Nc1ccccc1P(C)(C)=O` [Example 6] are 6.37, 8.66 and 5.51.
As for `[2H]C([2H])([2H])NC(=O)c1nnc(Nc2ccccn2)cc1Nc1ncccc1P(C)(C)=O` [Example 14], the pIC50 was 6.90 in assay [1] (setting [4]), 9.10 in assay [2] and 6.67 in assay [3] (setting [5]).
The corresponding values for `[2H]C([2H])([2H])NC(=O)c1nnc(Nc2ccc(C(C)(C)O)c(F)n2)cc1Nc1ncccc1P(C)(C)=O` [Example 34] are 6.46, 9.07 and 5.87.
The corresponding values for `[2H]C([2H])([2H])NC(=O)c1nnc(Nc2ccc(F)c(C)n2)cc1Nc1ncccc1P(C)(C)=O` [Example 31] are 7.27, 9.27 and 7.34.
As for `[2H]C([2H])([2H])NC(=O)c1nnc(Nc2ccc(Cl)cn2)cc1Nc1ncccc1P(C)(C)=O` [Example 37], the pIC50 is 7.13 in assay [1] (setting [4]), 9.42 in assay [2] and 7.28 in assay [3] (setting [5]).
The matching figures for `[2H]C([2H])([2H])NC(=O)c1nnc(Nc2ccc(N3CCOCC3)cn2)cc1Nc1ncccc1P(C)(C)=O` [Example 42]: 6.58, 9.21 and 6.53.
The corresponding values for `[2H]C([2H])([2H])NC(=O)c1nnc(Nc2cccc(OC)n2)cc1Nc1ncccc1P(C)(C)=O` [Example 24] are 7.48, 9.01 and 7.08.
The corresponding values for `[2H]C([2H])([2H])NC(=O)c1nnc(Nc2cc(C3CC3)ccn2)cc1Nc1ccccc1P(C)(C)=O` [Example 1] are 6.62, 8.47 and 6.42.
Turning to `[2H]C([2H])([2H])NC(=O)c1nnc(Nc2cc(C)ccn2)cc1Nc1ncccc1P(C)(C)=O` [Example 21], the pIC50 was 7.30 in assay [1] (setting [4]), 9.21 in assay [2] and 7.72 in assay [3] (setting [5]).
The corresponding values for `[2H]C([2H])([2H])NC(=O)c1nnc(NC(=O)C2CC2)cc1Nc1ncccc1P(C)(C)=O` [Example 9] are 6.29, 8.85 and 6.55.
The matching figures for `[2H]C([2H])([2H])NC(=O)c1nnc(Nc2ccc(C)c(C)n2)cc1Nc1ncccc1P(C)(C)=O` [Example 29]: 7.64, 9.27 and 7.21.
The corresponding values for `[2H]C([2H])([2H])NC(=O)c1nnc(NC(=O)C2CC2)cc1Nc1ccccc1P(C)(C)=O` [Example 2] are 5.50, 8.13 and 5.74.
`[2H]C([2H])([2H])NC(=O)c1nnc(Nc2ccc(C(C)(C)N)cn2)cc1Nc1ncccc1P(C)(C)=O` [Example 35]: the pIC50 was 5.64 in assay [1] (setting [4]), 8.92 in assay [2] and 5.75 in assay [3] (setting [5]).
The matching figures for `[2H]C([2H])([2H])NC(=O)c1nnc(Nc2cc(C3CC3)ccn2)cc1Nc1ncccc1P(C)(C)=O` [Example 12]: 6.84, 9.13 and 7.04.
The corresponding values for `[2H]C([2H])([2H])NC(=O)c1nnc(Nc2ccn(C)n2)cc1Nc1ncccc1P(C)(C)=O` [Example 23] are 6.18, 8.70 and 5.94.
For `[2H]C([2H])([2H])NC(=O)c1nnc(Nc2ccc(OC(F)(F)F)cn2)cc1Nc1ncccc1P(C)(C)=O` [Example 13], the pIC50 in assay [1] (setting [4]) is 7.66; in assay [2] it was 9.37; in assay [3] (setting [5]) it was 7.36.
The corresponding values for `[2H]C([2H])([2H])NC(=O)c1nnc(Nc2ccc(N3CCOCC3)cn2)cc1Nc1ccccc1P(C)(C)=O` [Example 7] are 6.10, 7.89 and 5.84.
The corresponding values for `[2H]C([2H])([2H])NC(=O)c1nnc(Nc2ccc(C)cn2)cc1Nc1ncccc1P(C)(C)=O` [Example 30] are 7.49, 9.25 and 6.92.
The corresponding values for `[2H]C([2H])([2H])NC(=O)c1nnc(Nc2ccc(C3CC3)cn2)cc1Nc1ccccc1P(C)(C)=O` [Example 5] are 6.47, 8.28 and 6.41.
Consider `[2H]C([2H])([2H])NC(=O)c1nnc(Nc2ccc(C(O)(C(F)(F)F)C(F)(F)F)cn2)cc1Nc1ncccc1P(C)(C)=O` [Example 41], for which the pIC50 is 6.69 in assay [1] (setting [4]), 9.04 in assay [2] and 6.49 in assay [3] (setting [5]).
The corresponding values for `[2H]C([2H])([2H])NC(=O)c1nnc(Nc2cccc(C(F)(F)F)n2)cc1Nc1ncccc1P(C)(C)=O` [Example 40] are 6.86, 9.34 and 6.59.
Turning to `[2H]C([2H])([2H])NC(=O)c1nnc(Nc2cc(F)ccn2)cc1Nc1ncccc1P(C)(C)=O` [Example 25], the pIC50 is 7.05 in assay [1] (setting [4]), 9.24 in assay [2] and 6.88 in assay [3] (setting [5]).
The matching figures for `[2H]C([2H])([2H])NC(=O)c1nnc(Nc2ccn(C)n2)cc1Nc1ccccc1P(C)(C)=O` [Example 8]: 5.75, 7.92 and 5.43.
The corresponding values for `[2H]C([2H])([2H])NC(=O)c1nnc(Nc2cc(C)nc(C)n2)cc1Nc1ccccc1P(C)(C)=O` [Example 3] are 5.81, 8.80 and 5.46.
The corresponding values for `[2H]C([2H])([2H])NC(=O)c1nnc(NC(=O)C2CC23CC3)cc1Nc1ncccc1P(C)(C)=O` (stereo not drawn) [Example 33] are 5.83, 8.54 and 5.43.
Regarding `[2H]C([2H])([2H])NC(=O)c1nnc(NC(=O)OCC)cc1Nc1ncccc1P(C)(C)=O` [Example 19], the pIC50 in assay [1] (setting [4]) is 5.38; in assay [2] it was 8.01; in assay [3] (setting [5]), 6.09.
The corresponding values for `[2H]C([2H])([2H])NC(=O)c1nnc(Nc2cc(Cl)c(C(C)(C)O)cn2)cc1Nc1ncccc1P(C)(C)=O` [Example 36] are 6.04, 9.28 and 6.03.
For the compound `[2H]C([2H])([2H])NC(=O)c1nnc(Nc2ccc(F)cn2)cc1Nc1ncccc1P(C)(C)=O` [Example 15], the pIC50 in assay [1] (setting [4]) is 7.32; in assay [2] it was 9.27; in assay [3] (setting [5]), 6.94.
The corresponding values for `[2H]C([2H])([2H])NC(=O)c1nnc(NC(=O)[C@H]2CC2(C)C)cc1Nc1ncccc1P(C)(C)=O` [Example 27] are 5.34, 7.89 and 4.90.

These data come from patent US10294256B2, “Phosphine oxide alkyl amide substituted heteroaryl compounds as modulators of IL-12, IL-23 and/or IFN alpha responses” (BRISTOL-MYERS SQUIBB COMPANY, priority 2016, dated 2019).
